Our source for the AC50 values is PubChem BioAssay AID488840 (Broad Institute, 2010).

In this test the target is Lysine-specific demethylase 4A (Homo sapiens) (UniProt O75164). Put plainly: JMJD2A histone demethylase inhibitors, dose response, selectivity assay for GASC-1 inhibitor project, biochemical, DELFIA europium, cherry-picked samples (AID 488840).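 Further: europium signal reports the dimethyl H3K9 product detected by antibody so inhibitors lower it.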 The note with it: GST-JMJD2A(1-420) H3K9me3 demethylation.

Each structure is given as a SMILES string. The source made the active and inactive calls.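 How the source made its calls: active means half-maximal dose of signal decrease from fit no higher than ten times the top valid tested dose; inconclusive means fit invalid, or curve flat with 30 to 70% inhibition; inactive means the rest.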

Sequence of Lysine-specific demethylase 4A (Homo sapiens) (O75164 whole entry, looked up): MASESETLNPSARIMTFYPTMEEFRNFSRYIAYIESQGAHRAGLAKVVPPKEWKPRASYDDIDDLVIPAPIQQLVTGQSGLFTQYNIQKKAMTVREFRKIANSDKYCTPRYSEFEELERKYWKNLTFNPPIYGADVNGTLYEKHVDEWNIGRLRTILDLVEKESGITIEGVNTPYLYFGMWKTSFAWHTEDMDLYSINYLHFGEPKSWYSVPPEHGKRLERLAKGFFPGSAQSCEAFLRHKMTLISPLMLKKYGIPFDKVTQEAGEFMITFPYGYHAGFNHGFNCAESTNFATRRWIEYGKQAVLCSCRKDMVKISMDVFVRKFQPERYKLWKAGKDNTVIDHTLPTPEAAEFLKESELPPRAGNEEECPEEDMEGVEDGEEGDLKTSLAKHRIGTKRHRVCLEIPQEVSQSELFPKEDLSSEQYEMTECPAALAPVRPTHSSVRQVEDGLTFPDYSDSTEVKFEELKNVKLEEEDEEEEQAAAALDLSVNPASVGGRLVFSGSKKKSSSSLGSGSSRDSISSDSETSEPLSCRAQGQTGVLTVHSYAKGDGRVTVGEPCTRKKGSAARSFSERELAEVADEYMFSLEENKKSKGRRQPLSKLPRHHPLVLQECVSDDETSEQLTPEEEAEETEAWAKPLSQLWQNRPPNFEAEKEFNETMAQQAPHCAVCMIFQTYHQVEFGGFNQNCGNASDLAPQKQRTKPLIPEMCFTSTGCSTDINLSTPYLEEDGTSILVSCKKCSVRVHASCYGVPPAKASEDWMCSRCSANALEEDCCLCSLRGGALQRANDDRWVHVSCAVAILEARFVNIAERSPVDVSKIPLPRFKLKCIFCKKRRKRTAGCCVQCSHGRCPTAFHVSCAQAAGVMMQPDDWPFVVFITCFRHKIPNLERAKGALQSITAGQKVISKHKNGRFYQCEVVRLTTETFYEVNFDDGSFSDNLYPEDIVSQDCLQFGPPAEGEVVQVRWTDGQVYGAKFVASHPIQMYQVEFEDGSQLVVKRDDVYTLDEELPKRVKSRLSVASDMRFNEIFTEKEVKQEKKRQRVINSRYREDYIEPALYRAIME

`CC(=O)C[C@@H](O)CC(=O)[C@H]1OC(=O)[C@H](C)CCCCc2ccccc21`: the AC50 is > 6 µM (inactive).

The term AC50 denotes the concentration giving half of the maximal activity seen.
